Assay results from patent US5464848A, “1,2,4-oxadiazolyl-phenoxyalkylisoxazoles and their use as antiviral agents” (Sterling Winthrop Inc., priority 1993, dated 1995).
Values after ≈ are worked out from the molar mass of the structure shown.

System: human rhinovirus (HRV) serotypes, panel T
Experiment: MIC50/MIC80 over panel T of fifteen human rhinovirus serotypes (HeLa cell CPE)
Type: cell-based
Settings: for MIC50: minimum concentration required to inhibit 50% of the tested serotypes; for MIC80: minimum concentration required to inhibit 80% of the tested serotypes
Description: They are useful in inhibiting virus replication in vitro and are primarily active against picornaviruses, including enteroviruses, echovirus and coxsackie virus, especially rhinoviruses. […] The test procedure used was as follows: The MIC values were determined by an automated tissue culture infectious dose 50% (TCID-50) assay. HeLa cells in monoloyers in 96-well cluster plates were infected with a dilution of virus which had been shown empirically to produce 80% to 100% cytopathic effect (CPE) in 3 days in the absence of drug. The compound to be tested was serially diluted through 10, 2-fold cycles and added to the infected cells. After a 3 day incubation at 33° C. and 2.5% carbon dioxide, the cells were fixed with a 5% solution of glutaraldehyde followed by staining with a 0.25% solution of crystal violet in water. The plates were then rinsed, dried, and the amount of stain remaining in the well (a measure of intact cells) was quantitated with an optical density reader. The MIC was determined to be the concentration of compound which protected 50% of the cells from virus-induced CPE relative to an untreated virus control.
In the above test procedures, representative compounds of formula I were tested against some the serotypes from either a panel of fifteen human rhinovirus (HRV) serotypes, (noted in the table as panel T) namely, HRV-2, -14, -1A, -1B, -6, -21, -22, -15, -25, -30, -50, -67, -89, -86 and -41 or against some of the serotypes from a panel of 10 human rhinovirus serotypes namely HRV-3, -4, -5, -9, -16, -18, -38, -66, -75 and -61, (noted in the table as panel B) and the MIC value, expressed in micrograms per milliliter ([…]), for each rhinovirus serotype was determined for each virus, example 1e is given as an example of the data. Then MIC50 and MIC80 values, which are the minimum concentrations of the compound required to inhibit 50% and 80%, respectively, of the tested serotypes were determined.
The following Table gives the test results for representative compounds of the invention. The panel of viruses used in the test appears before the MIC80 and MIC50 figure and the number of serotypes which the compound is tested against (N) is indicated after the MIC80 and MIC50 figure.

5-{3-[4-(5-Trifluoromethyl-1,2,4-oxadiazol-3-yl)2-cyano-6-chlorophenoxy]-propyl}-3-methylisoxazole [Example 62f]
MIC50: 0.213 µg/mL
MIC80: 0.09 µg/mL

Cc1cc(CCCOc2c(C)cc(-c3noc(C4CC4)n3)cc2C)on1 [Example 4, 5-{3-[4-(5-Cyclopropyl-1,2,4-oxadiazol-3-yl) -2,6-dimethylphenoxy]propyl}-3-methylisoxazole]
MIC50 (Human rhinovirus sp., 72 h): 3.15 µg/mL (≈ 8.9 µM)
MIC80: 0.057 µg/mL (≈ 0.161 µM)

COCc1nc(-c2cc(C)c(OCCCc3cc(C)no3)c(C)c2)no1 [Example 5, 5-{3-[2,6-Dimethyl-4-(5-methoxymethyl-1,2,4-oxadiazol-3-yl)phenoxy]propyl}-3-methylisoxazole]
MIC50 (Human rhinovirus sp., 72 h): 0.153 µg/mL (≈ 0.428 µM)
MIC80: 0.037 µg/mL (≈ 0.104 µM)

Cc1cc(CCCOc2c(C)cc(-c3noc(CF)n3)cc2C)on1 [Example 6, 5-{3-[2,6-Dimethyl-4-(5-fluoromethyl-1,2,4-oxadiazol-3-yl)phenoxy]propyl}-3-methylisoxazole]
MIC50 (Human rhinovirus sp., 72 h): 0.073 µg/mL (≈ 0.211 µM)
MIC80: 0.046 µg/mL (≈ 0.133 µM)

CCOC(=O)c1nc(-c2cc(C)c(OCCCc3cc(C)no3)c(C)c2)no1 [Example 7, 5-{3-[2,6-Dimethyl-4-(5-ethoxycarbonyl-1,2,4-oxadiazol-3-yl)phenoxy]propyl}-3-methylisoxazole]
MIC50 (Human rhinovirus sp., 72 h): 99 µg/mL (≈ 257 µM)
MIC80: 99 µg/mL (≈ 257 µM)

Cc1cc(CCCOc2c(C)cc(-c3noc(=O)[nH]3)cc2C)on1 [Example 8, 5-{3-[2,6-Dimethyl-4-(5-oxo-4,5-dihydro-1,2,4-oxadiazol-3-yl)phenoxy]propyl}-3-methylisoxazole]
MIC50 (Human rhinovirus sp., 72 h): 99 µg/mL (≈ 301 µM)
MIC80: 99 µg/mL (≈ 301 µM)

CC(=O)OCc1nc(-c2cc(C)c(OCCCc3cc(C)no3)c(C)c2)no1 [Example 9, 5-{3-[2,6-Dimethyl-4-(5-methylcarbonyloxy-methyl-1,2,4-oxadiazol-3-yl)phenoxy]propyl}-3-methylisoxazole]
MIC50 (Human rhinovirus sp., 72 h): 0.279 µg/mL (≈ 0.724 µM)
MIC80: 0.141 µg/mL (≈ 0.366 µM)

Cc1cc(CCCOc2c(C)cc(-c3noc(CCl)n3)cc2C)on1 [Example 10, 5-{3-[4-(5-Chloromethyl-1,2,4-oxadiazol-3-yl) -2,6-dimethylphenoxy]propyl}-3-methylisoxazole]
MIC50 (Human rhinovirus sp., 72 h): 0.279 µg/mL (≈ 0.771 µM)
MIC80: 0.141 µg/mL (≈ 0.39 µM)

CC(=O)OC(C)c1nc(-c2cc(C)c(OCCCc3cc(C)no3)c(C)c2)no1 (centres unmarked) [Example 11, 5-{3-[2,6-Dimethyl-4-(5-(1-methylcarbonyloxy-ethyl)-1,2,4-oxadiazol-3-yl)phenoxy]propyl}-3-methylisoxazole]
MIC50 (Human rhinovirus sp., 72 h): 1.98 µg/mL (≈ 4.97 µM)
MIC80: 0.2485 µg/mL (≈ 0.622 µM)

Cc1cc(CCCOc2c(C)cc(-c3noc(C(Cl)(Cl)Cl)n3)cc2C)on1 [Example 12, 5-{3-[2,6-Dimethyl-4-(5-trichloromethyl-1,2,4-oxadiazol-3-yl)-phenoxy]propyl}-3-methylisoxazole]
MIC50 (Human rhinovirus sp., 72 h): 2.94 µg/mL (≈ 6.83 µM)
MIC80: 0.662 µg/mL (≈ 1.54 µM)

Cc1cc(CCCOc2c(C)cc(-c3noc(C(Cl)Cl)n3)cc2C)on1 [Example 13, 5-{3-[4-(5-Dichloromethyl-1,2,4-oxadiazol-3-yl)-2,6-dimethyl-phenoxy]propyl}-3-methylisoxazole]
MIC50 (Human rhinovirus sp., 72 h): 0.266 µg/mL (≈ 0.671 µM)
MIC80: 0.145 µg/mL (≈ 0.366 µM)

Cc1cc(CCCOc2c(C)cc(-c3noc(C(F)F)n3)cc2C)on1 [Example 14, 5-{3-[4-(5-Difluoromethyl-1,2,4-oxadiazol-3-yl)-2,6-dimethyl-phenoxy]propyl}-3-methylisoxazole]
MIC50 (Human rhinovirus sp., 72 h): 0.054 µg/mL (≈ 0.149 µM)
MIC80: 0.022 µg/mL (≈ 0.0605 µM)

Cc1cc(CCCOc2c(C)cc(-c3noc(=N)[nH]3)cc2C)on1 [Example 15, 5-{3-[4-(5-Imino-4,5-dihydro-1,2,4-oxadiazol-3-yl)-2,6-dimethylphenoxy]propyl}-3-methylisoxazole]
MIC50 (Human rhinovirus sp., 72 h): 99 µg/mL (≈ 301 µM)
MIC80: 99 µg/mL (≈ 301 µM)

COc1nc(-c2cc(C)c(OCCCc3cc(C)no3)c(C)c2)no1 [Example 16, 5-{3-[2,6-Dimethyl-4-(5-methoxy-1,2,4-oxadiazol-3-yl)phen-oxy]propyl}-3-methylisoxazole]
MIC50 (Human rhinovirus sp., 72 h): 0.135 µg/mL (≈ 0.393 µM)
MIC80: 0.036 µg/mL (≈ 0.105 µM)

CCOc1nc(-c2cc(C)c(OCCCc3cc(C)no3)c(C)c2)no1 [Example 17, 5-{3-[2,6-Dimethyl-4-(5-ethoxy-1,2,4-oxadiazol-3-yl)phenoxy]propyl}-3-methylisoxazole]
MIC50 (Human rhinovirus sp., 72 h): 0.116 µg/mL (≈ 0.325 µM)
MIC80: 0.055 µg/mL (≈ 0.154 µM)

CN=c1[nH]c(-c2cc(C)c(OCCCc3cc(C)no3)c(C)c2)no1 [Example 18, 5-{3-[2,6-Dimethyl-4-(5-methylimino-4,5-dihydro-1,2,4-oxadiazol-3-yl)phenoxy]propyl}-3-methylisoxazole]
MIC50 (Human rhinovirus sp., 72 h): 0.325 µg/mL (≈ 0.949 µM)
MIC80: 0.128 µg/mL (≈ 0.374 µM)

Cc1cc(CCCOc2c(C)cc(-c3noc(N(C)C)n3)cc2C)on1 [Example 19, 5-{3-[2,6-Dimethyl-4-(5-dimethylamino-1,2,4-oxadiazol-3-yl)-phenoxy]propyl}-3-methylisoxazole]
MIC50 (Human rhinovirus sp., 72 h): 0.285 µg/mL (≈ 0.8 µM)
MIC80: 0.085 µg/mL (≈ 0.238 µM)

COCc1cc(CCCOc2c(C)cc(-c3noc(C(F)(F)F)n3)cc2C)on1 [Example 21, 5-{3-[2,6-Dimethyl-4-(5-trifluoromethyl-1,2,4-oxadiazol-3-yl)phenoxy]propyl}-3-(methoxymethyl) -isoxazole]
MIC50 (Human rhinovirus sp., 72 h): 1.56 µg/mL (≈ 3.8 µM)
MIC80: 0.0575 µg/mL (≈ 0.14 µM)

CCOCc1cc(CCCOc2c(C)cc(-c3noc(C(F)(F)F)n3)cc2C)on1 [Example 22, 5-{3-[2,6-Dimethyl-4-(5-trifluoromethyl-1,2,4-oxadiazol-3-yl)phenoxy]propyl}-3-(ethoxymethyl)-isoxazole]
MIC50 (Human rhinovirus sp., 72 h): 0.729 µg/mL (≈ 1.71 µM)
MIC80: 0.087 µg/mL (≈ 0.205 µM)

Cc1cc(-c2noc(C(F)(F)F)n2)cc(C)c1OCCCc1cc(C2CC2)no1 [Example 23, 3-Cyclopropyl-5-{3-[2,6-dimethyl-4-(5-trifluoromethyl-1,2,4-oxadiazol-3-yl)phenoxy]propyl}-isoxazole]
MIC50 (Human rhinovirus sp., 72 h): 0.625 µg/mL (≈ 1.53 µM)
MIC80: 0.204 µg/mL (≈ 0.501 µM)

CCc1cc(CCCOc2c(C)cc(-c3noc(C4CC4)n3)cc2C)on1 [Example 25, 5-{3-[4-(5-Cyclopropyl-1,2,4-oxadiazol-3-yl) -2,6-dimethylphenoxy]propyl}-3-ethylisoxazole]
MIC50 (Human rhinovirus sp., 72 h): 0.312 µg/mL (≈ 0.849 µM)
MIC80: 0.085 µg/mL (≈ 0.231 µM)

COCc1cc(CCCOc2c(C)cc(-c3noc(C4CC4)n3)cc2C)on1 [Example 26]
MIC50 (Human rhinovirus sp., 72 h): 0.183 µg/mL (≈ 0.477 µM)
MIC80: 0.038 µg/mL (≈ 0.0991 µM)

Cc1cc(-c2noc(C3CC3)n2)cc(C)c1OCCCc1cc(C2CC2)no1 [Example 27]
MIC50 (Human rhinovirus sp., 72 h): 0.142 µg/mL (≈ 0.374 µM)
MIC80: 0.087 µg/mL (≈ 0.229 µM)

CCc1cc(CCCOc2c(C)cc(-c3noc(C(F)(F)F)n3)cc2C)on1 [Example 28c, 5-{3-[2,6-Dimethyl-4-(5-trifluoromethyl-1,2,4-oxadiazol-3-yl)phenoxy]propyl}-3-ethylisoxazole]
MIC50 (Human rhinovirus sp., 72 h): 0.278 µg/mL (≈ 0.703 µM)
MIC80: 0.119 µg/mL (≈ 0.301 µM)

COCCc1cc(CCCOc2c(C)cc(-c3noc(C(F)(F)F)n3)cc2C)on1 [Example 29d, 5-{3-[2,6-Dimethyl-4-(5-trifluoromethyl-1,2,4-oxadiazol-3-yl)phenoxy]propyl}-3-(methoxyethyl)isoxazole]
MIC50 (Human rhinovirus sp., 72 h): 0.172 µg/mL (≈ 0.404 µM)
MIC80: 0.715 µg/mL (≈ 1.68 µM)

Cc1cc(CCCCCOc2c(C)cc(-c3noc(C(F)(F)F)n3)cc2C)on1 [Example 30c, 5-{5-[2,6-Dimethyl-4-(5-trifluoromethyl-1,2,4-oxadiazol-3-yl)-phenoxy]pentyl}-3-methylisoxazole]
MIC50 (Human rhinovirus sp., 72 h): 0.694 µg/mL (≈ 1.7 µM)
MIC80: 0.225 µg/mL (≈ 0.55 µM)

Cc1cc(CCCCCOc2c(Cl)cc(-c3noc(C(F)(F)F)n3)cc2Cl)on1 [Example 31c, 5-{5-[2,6-Dichloro-4-(5-trifluoromethyl-1,2,4-oxadiazol-3-yl)-phenoxy]pentyl}-3-methylisoxazole]
MIC50 (Human rhinovirus sp., 72 h): 99 µg/mL (≈ 220 µM)
MIC80: 0.533 µg/mL (≈ 1.18 µM)

Cc1cc(CCCOc2ccc(-c3noc(C(F)(F)F)n3)cc2)on1 [Example 32c, 3-Methyl-5-{3-[4-(5-trifluoromethyl-1,2,4-oxadiazol-3-yl) -phenoxy]propyl}isoxazole]
MIC50 (Human rhinovirus sp., 72 h): 99 µg/mL (≈ 280 µM)
MIC80: 2.86 µg/mL (≈ 8.1 µM)

Cc1cc(-c2noc(C(F)(F)F)n2)cc(C)c1OCCCc1cc(CCO)no1 [Example 33, 5-{3-[2,6-Dimethyl-4-(5-trifluoromethyl-1,2,4-oxadiazol-3-yl)-phenoxy]propyl}-3-(2-hydroxyethyl)isoxazole]
MIC50 (Human rhinovirus sp., 72 h): 0.102 µg/mL (≈ 0.248 µM)
MIC80: 0.045 µg/mL (≈ 0.109 µM)

Cc1cc(-c2noc(C(F)(F)F)n2)cc(C)c1OCCCc1cc(CO)no1 [Example 34d, 5-{3-[2,6-Dimethyl-4-(5-trifluoromethyl-1,2,4-oxadiazol-3-yl)phenoxy]propyl}-3-(hydroxymethyl) isoxazole]
MIC50 (Human rhinovirus sp., 72 h): 0.07 µg/mL (≈ 0.176 µM)
MIC80: 0.042 µg/mL (≈ 0.106 µM)

Cc1cc(-c2noc(C3CC3)n2)cc(C)c1OCCCc1cc(O)no1 [Example 36d, 5-{3-[4-(5-cyclopropyl-1,2,4-oxadiazol-3-yl)-2,6-dimethylphenoxy]propyl}-3-hydroxyisoxazole]
MIC50 (Human rhinovirus sp., 72 h): 1.32 µg/mL (≈ 3.72 µM)
MIC80: 0.371 µg/mL (≈ 1.04 µM)
